Results reported in patent US11117890B2, “Substituted isoindole allosteric EGFR inhibitors” (Hoffmann-La Roche Inc., priority 2017, dated 2021).
Structures can show the parent of a compound that is named as a salt.

Target: T1, Phospho-EGFR in H1975 cell line (Homo sapiens, UniProt P00533, L858R/T790M)
T1 construct: H1975 cell line was obtained from American Type Culture Collection; host or cells: H1975
Assay: HTRF Phospo EGFR Assay (Cellular)
Assay type: cell-based
Conditions: H1975 cells; 6 hours compound incubation in starving medium; HTRF anti-Phospho-EGFR readout
Protocol: HTRF Phospo EGFR Assay (Cellular)
H1975 cell line was obtained from American Type Culture Collection (Manassas, Va., USA). Cells were maintained at 37° C., 5% CO2 in complete Media RPMI 1640 without phenol red containing 0.3 mg/ml glutamine, 100 IU/ml penicillin, and […] (Gibco) supplemented with 10% fetal bovine serum (FBS) (Gibco). Compounds were diluted into starving medium RPMI 1640 Media without phenol red containing 0.3 mg/ml glutamine, 100 IU/ml penicillin, and […] (Gibco).
Cells were cultured overnight in a 384-well white plate (8000 cells/well) using 8 μl of complete medium/well. Cells were washed two times with 20 μl of starving medium. Media was removed by tapping plates on tissue and subsequently 8 μl of fresh starving medium/well was added. Then 4 μl/well of the 3×compound solution, containing a half-log dilution series of the compound or DMSO in starving medium, were added to the cells. After 6 hours at 37° C., 5% CO2 cells were lysed by adding to the compound mix 4 μl/well of the supplemented lysis buffer, followed by incubation for 30 min at room temperature with shaking. Lysates were stored at −20° C. overnight. The following day plates were thawed and 2 μl of anti-Phospho-EGFR Cryptate and 2 μl of anti-Phospho-EGFR-d2 antibody solutions prepared in the detection buffer were added. The plates were then incubated for at least 4 h at room temperature before reading the fluorescence emission at 620 and 665 nm using PHERAstar FX plate reader (BMG Labtech).

T1 sequence (P00533 25-1210 T790M/L858R): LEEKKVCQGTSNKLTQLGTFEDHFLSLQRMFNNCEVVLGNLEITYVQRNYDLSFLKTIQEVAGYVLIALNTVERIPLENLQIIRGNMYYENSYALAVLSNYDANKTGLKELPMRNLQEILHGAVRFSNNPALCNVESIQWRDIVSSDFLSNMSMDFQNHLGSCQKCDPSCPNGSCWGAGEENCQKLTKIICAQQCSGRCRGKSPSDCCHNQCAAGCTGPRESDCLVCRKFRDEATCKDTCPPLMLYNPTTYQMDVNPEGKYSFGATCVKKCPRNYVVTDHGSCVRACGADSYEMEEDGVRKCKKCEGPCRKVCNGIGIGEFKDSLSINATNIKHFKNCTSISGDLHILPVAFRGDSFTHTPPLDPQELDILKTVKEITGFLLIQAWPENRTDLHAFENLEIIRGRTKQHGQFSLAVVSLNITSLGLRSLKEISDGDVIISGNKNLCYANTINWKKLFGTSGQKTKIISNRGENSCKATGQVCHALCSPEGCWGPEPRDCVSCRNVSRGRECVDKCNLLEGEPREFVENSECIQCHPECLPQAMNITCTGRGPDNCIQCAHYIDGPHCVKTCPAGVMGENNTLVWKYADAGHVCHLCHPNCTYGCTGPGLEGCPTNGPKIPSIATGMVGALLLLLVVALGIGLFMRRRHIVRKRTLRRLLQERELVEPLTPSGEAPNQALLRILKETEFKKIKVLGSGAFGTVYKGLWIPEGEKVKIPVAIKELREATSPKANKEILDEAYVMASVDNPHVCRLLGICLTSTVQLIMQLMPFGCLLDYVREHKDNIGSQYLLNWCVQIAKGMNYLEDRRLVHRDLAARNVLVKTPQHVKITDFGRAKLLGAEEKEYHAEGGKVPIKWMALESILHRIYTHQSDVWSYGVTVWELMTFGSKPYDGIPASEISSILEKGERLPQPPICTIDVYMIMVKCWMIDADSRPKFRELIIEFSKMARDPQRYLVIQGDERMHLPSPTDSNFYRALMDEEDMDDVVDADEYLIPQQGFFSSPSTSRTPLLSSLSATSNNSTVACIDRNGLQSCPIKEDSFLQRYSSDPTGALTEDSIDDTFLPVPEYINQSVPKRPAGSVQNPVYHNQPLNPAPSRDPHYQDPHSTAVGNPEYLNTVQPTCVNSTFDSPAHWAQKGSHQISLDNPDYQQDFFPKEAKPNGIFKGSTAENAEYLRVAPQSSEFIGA

IC50 | SMILES
45 nM | O=C(Nc1nccs1)C(c1ccccc1)N1Cc2ccc(C#Cc3ccccc3)cc2C1=O (racemic) [Example 1, (2RS)-2-[1-Oxo-6-(2-phenylethynyl)isoindolin-2-yl]-2-phenyl-N-thiazol-2-yl-acetamide]
42 nM | O=C(Nc1nccs1)C(c1ccccc1)N1Cc2ccc(C#Cc3cccnc3)cc2C1=O (racemic) [Example 2, (2RS)-2-[1-oxo-6-[2-(3-pyridyl)ethynyl]isoindolin-2-yl]-2-phenyl-N-thiazol-2-yl-acetamide]
32 nM | Nc1ccc(C#Cc2ccc3c(c2)C(=O)N(C(C(=O)Nc2nccs2)c2ccccc2)C3)cn1 (racemic) [Example 3, (2RS)-2-[6-[2-(6-Amino-3-pyridyl)ethynyl]-1-oxo-isoindolin-2-yl]-2-phenyl-N-thiazol-2-yl-acetamide]
9 nM | Nc1ccc(C#Cc2ccc3c(c2)C(=O)N(C(C(=O)Nc2nccs2)c2cccc(F)c2)C3)cn1 (racemic) [Example 4, (2RS)-2-[6-[2-(6-Amino-3-pyridyl)ethynyl]-1-oxo-isoindolin-2-yl]-2-(3-fluorophenyl)-N-thiazol-2-yl-acetamide]
7 nM | Nc1ccc(C#Cc2ccc3c(c2)C(=O)N(C(C(=O)Nc2nccs2)c2cc(F)ccc2F)C3)cn1 (racemic) [Example 5, (2RS)-2-[6-[2-(6-Amino-3-pyridyl)ethynyl]-1-oxo-isoindolin-2-yl]-2-(2,5-difluorophenyl)-N-thiazol-2-yl-acetamide]
35 nM | NCc1ccc(C#Cc2ccc3c(c2)C(=O)N(C(C(=O)Nc2nccs2)c2ccccc2)C3)cc1 (racemic) [Example 6, (2RS)-2-[6-[2-[4-(Aminomethyl)phenyl]ethynyl]-1-oxo-isoindolin-2-yl]-2-phenyl-N-thiazol-2-yl-acetamide]
10 nM | CC(=O)Nc1ccc(C#Cc2ccc3c(c2)C(=O)N(C(C(=O)Nc2nccs2)c2ccccc2)C3)cn1 (racemic) [Example 7, (2RS)-2-[6-[2-(6-Acetamido-3-pyridyl)ethynyl]-1-oxo-isoindolin-2-yl]-2-phenyl-N-thiazol-2-yl-acetamide]
1.9 nM | Nc1ccc(C#Cc2ccc3c(c2)C(=O)N(C(C(=O)Nc2nccs2)c2n[nH]c4c2CCC4)C3)cn1 (racemic) [Example 8, (2RS)-2-[6-[2-(6-Amino-3-pyridyl)ethynyl]-1-oxo-isoindolin-2-yl]-2-(1,4,5,6-tetrahydrocyclopenta[c]pyrazol-3-yl)-N-thiazol-2-yl-acetamide]
16 nM | CNC(=O)c1ccc(C#Cc2ccc3c(c2)C(=O)N(C(C(=O)Nc2nccs2)c2ccccc2)C3)cn1 (racemic) [Example 9, N-Methyl-5-[2-[3-oxo-2-[(1RS)-2-oxo-1-phenyl-2-(thiazol-2-ylamino)ethyl]isoindolin-5-yl]ethynyl]pyridine-2-carboxamide]
43 nM | O=C(Nc1nccs1)C(c1ccccc1)N1Cc2ccc(C#Cc3ccc(CN4CCNCC4)cc3)cc2C1=O (racemic) [Example 10, (2RS)-2-[1-Oxo-6-[2-[4-(piperazin-1-ylmethyl)phenyl]ethynyl]isoindolin-2-yl]-2-phenyl-N-thiazol-2-yl-acetamide hydrochloride]
61 nM | O=C(Nc1nccs1)C(c1ccccc1)N1Cc2ccc(C#Cc3ccc(CN4CCOCC4)cc3)cc2C1=O (racemic) [Example 11, (2RS)-2-[6-[2-[4-(Morpholinomethyl)phenyl]ethynyl]-1-oxo-isoindolin-2-yl]-2-phenyl-N-thiazol-2-yl-acetamide]
14 nM | CC(=O)N1CCN(Cc2ccc(C#Cc3ccc4c(c3)C(=O)N(C(C(=O)Nc3nccs3)c3ccccc3)C4)cc2)CC1 (racemic) [Example 12, (2RS)-2-[6-[2-[4-[(4-acetylpiperazin-1-yl)methyl]phenyl]ethynyl]-1-oxo-isoindolin-2-yl]-2-phenyl-N-thiazol-2-1-acetamide]
69 nM | CCN1CCN(Cc2ccc(C#Cc3ccc4c(c3)C(=O)N(C(C(=O)Nc3nccs3)c3ccccc3)C4)cc2)CC1 (racemic) [Example 13, (2RS)-2-[6-[2-[4-[(4-Ethylpiperazin-1-yl)methyl]phenyl]ethynyl]-1-oxo-isoindolin-2-yl]-2-phenyl-N-thiazol-2-yl-acetamide]
51 nM | O=C(Nc1nccs1)C(c1ccccc1)N1Cc2ccc(C#Cc3ccc(C(=O)N4CCOCC4)nc3)cc2C1=O (racemic) [Example 14, (2RS)-2-[6-[2-[6-(Morpholine-4-carbonyl)-3-pyridyl]ethynyl]-1-oxo-isoindolin-2-yl]-2-phenyl-N-thiazol-2-yl-acetamide]
1 nM | Nc1ccc(C#Cc2ccc3c(c2)C(=O)N(C(C(=O)Nc2nccs2)c2cc(F)ccc2O)C3)cn1 (racemic) [Example 15, (2RS)-2-[6-[2-(6-Amino-3-pyridyl)ethynyl]-1-oxo-isoindolin-2-yl]-2-(5-fluoro-2-hydroxy-phenyl)-N-thiazol-2-yl-acetamide]
1 nM | O=C(Nc1nccs1)C(c1cc(F)ccc1O)N1Cc2ccc(C#Cc3cccnc3)cc2C1=O (racemic) [Example 16, (2RS)-2-(5-Fluoro-2-hydroxy-phenyl)-2-[1-oxo-6-[2-(3-pyridyl)ethynyl]isoindolin-2-yl]-N-thiazol-2-yl-acetamide]
6 nM | O=C(Nc1nccs1)C(c1cc(F)ccc1O)N1Cc2ccc(C#Cc3ccccc3)cc2C1=O (racemic) [Example 17, (2RS)-2-(5-Fluoro-2-hydroxy-phenyl)-2-[1-oxo-6-(2-phenylethynyl)isoindolin-2-yl]-N-thiazol-2-yl-acetamide]
2 nM | Nc1ncc(C#Cc2ccc3c(c2)C(=O)N(C(C(=O)Nc2nccs2)c2cc(F)ccc2O)C3)cn1 (racemic) [Example 18, (2RS)-2-[6-[2-(2-Aminopyrimidin-5-yl)ethynyl]-1-oxo-isoindolin-2-yl]-2-(5-fluoro-2-hydroxy-phenyl)-N-thiazol-2-yl-acetamide]
3 nM | O=C(Nc1nccs1)C(c1cc(F)ccc1O)N1Cc2ccc(C#Cc3ccnc(Cl)c3)cc2C1=O (racemic) [Example 19, (2RS)-2-[6-[2-(2-Chloro-4-pyridyl)ethynyl]-1-oxo-isoindolin-2-yl]-2-(5-fluoro-2-hydroxy-phenyl)-N-thiazol-2-yl-acetamide]
4 nM | Nc1ccc(C#Cc2ccc3c(c2)C(=O)N(C(C(=O)Nc2ccccn2)c2cc(F)ccc2O)C3)cn1 (racemic) [Example 20, (2RS)-2-[6-[2-(6-Amino-3-pyridyl)ethynyl]-1-oxo-isoindolin-2-yl]-2-(5-fluoro-2-hydroxy-phenyl)-N-(2-pyridyl)acetamide]
3 nM | Cc1c(C#Cc2ccc(N)nc2)ccc2c1C(=O)N(C(C(=O)Nc1nccs1)c1cc(F)ccc1O)C2 (racemic) [Example 21, (2RS)-2-[6-[2-(6-Amino-3-pyridyl)ethynyl]-7-methyl-1-oxo-isoindolin-2-yl]-2-(5-fluoro-2-hydroxy-phenyl)-N-thiazol-2-yl-acetamide]
3 nM | Cc1c(C#Cc2ccc(N)nc2)ccc2c1C(=O)N(C(C(=O)Nc1ccccn1)c1cc(F)ccc1O)C2 (racemic) [Example 22, (2RS)-2-[6-[2-(6-Amino-3-pyridyl)ethynyl]-7-methyl1-oxo-isoindolin-2-yl]-2-(5-fluoro-2-hydroxy-phenyl)-N-(2-pyridyl)acetamide]
4 nM | Nc1ccc(C#Cc2ccc3c(c2)C(=O)N(C(C(=O)Nc2nccs2)c2cc(Cl)ccc2O)C3)cn1 (racemic) [Example 23, (2RS)-2-[6-[2-(6-Amino-3-pyridyl)ethynyl]-1-oxo-isoindolin-2-yl]-2-(5-chloro-2-hydroxy-phenyl)-N-thiazol-2-yl-acetamide]
4 nM | Nc1ccc(C#Cc2ccc3c(c2)C(=O)N(C(C(=O)Nc2nccs2)c2ccccc2O)C3)cn1 (racemic) [Example 24, (2RS)-2-[6-[2-(6-Amino-3-pyridyl)ethynyl]-1-oxo-isoindolin-2-yl]-2-(2-hydroxyphenyl)-N-thiazol-2-yl-acetamide]
2 nM | Nc1ccc(C#Cc2ccc3c(c2)C(=O)N(C(C(=O)Nc2nccs2)c2ncccc2O)C3)cn1 (racemic) [Example 25, (2RS)-2-[6-[2-(6-Amino-3-pyridyl)ethynyl]-1-oxo-isoindolin-2-yl]-2-(3-hydroxy-2-pyridyl)-N-thiazol-2-yl-acetamide trifluoroacetate]
2 nM | O=C(Nc1nccs1)C(c1cc(F)ccc1O)N1Cc2ccc(C#Cc3cccnc3)c(F)c2C1=O (racemic) [Example 26, (2RS)-2-(5-Fluoro-2-hydroxy-phenyl)-2-[7-fluoro-1-oxo-6-[2-(3-pyridyl)ethynyl]isoindolin-2-yl]-N-thiazol-2-yl-acetamide]
5 nM | O=C(Nc1nccs1)C(c1cc(F)ccc1O)N1Cc2ccc(C#Cc3ccc(CN4CCOCC4)cc3)cc2C1=O (racemic) [Example 27, (2RS)-2-(5-Fluoro-2-hydroxy-phenyl)-2-[6-[2-[4-(morpholinomethyl)phenyl]ethynyl]-1-oxo-isoindolin-2-yl]-N-thiazol-2-yl-acetamide]
